# From PMC3646541 (Nature protocols, 2011)
# System: four of the six Bcl-2 family proteins
# Experiment: Multiplex flow cytometry competition dose-response against F-Bim
# Type: binding
# Settings: constant 50 nM F-Bim, dose-response series (Fig. 2b)
structure (smiles),measurement,value
CN(C)CC[C@H](CSc1ccccc1)Nc1ccc(S(=O)(=O)NC(=O)c2ccc(N3CCN(Cc4ccccc4-c4ccc(Cl)cc4)CC3)cc2)cc1[N+](=O)[O-] [ABT-737],ability to block F-Bim binding,block F-Bim binding to four of them at relatively low concentrations
